From patent US10604535B2, “Compounds, compositions and methods” (Denali Therapeutics Inc., priority 2016, dated 2020)

What follows are molecules tested against GST-hRIPK1 (8-327) (Homo sapiens (Human), UniProt Q13546) (assay: Fluorescent Polarization Binding (FP Binding) assay).
Chain of GST-hRIPK1 (8-327) (Q13546 8-327): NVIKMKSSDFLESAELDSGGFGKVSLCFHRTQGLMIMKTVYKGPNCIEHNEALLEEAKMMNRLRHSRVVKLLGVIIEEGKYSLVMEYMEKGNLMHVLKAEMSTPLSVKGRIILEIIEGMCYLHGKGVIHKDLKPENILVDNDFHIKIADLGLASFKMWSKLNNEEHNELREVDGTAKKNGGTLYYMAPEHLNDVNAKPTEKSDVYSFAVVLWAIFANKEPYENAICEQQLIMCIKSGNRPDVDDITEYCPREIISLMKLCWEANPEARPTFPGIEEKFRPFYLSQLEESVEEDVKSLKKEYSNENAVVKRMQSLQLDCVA

Question: How did the IC50 turn out when `CN1C(=O)[C@@H](NC(=O)[C@@H]2C[C@H]2Cc2ccccc2)COc2ccccc21` (single isomer, unassigned) [Example 50A] was run?
Answer: The IC50 was 0.1 to 1000 nM.

Question: How did the IC50 turn out when `CN1C(=O)[C@@H](NC(=O)[C@H]2C[C@@H]2Cc2ccccc2)COc2ccccc21` (single isomer, unassigned) [Example 50B] was run?
Answer: The IC50 was 1000 to 10000 nM.

Question: With `O=C(N[C@H]1COc2cccnc2NC1=O)c1nnc(C2CCc3ccccc32)[nH]1` (single isomer, unassigned) [Example 102A] as the molecule, how does the IC50 read?
Answer: Its IC50 is 1000 to 10000 nM.

Question: With `O=C(N[C@H]1COc2cccnc2NC1=O)c1nnc(C2CCc3ccccc32)[nH]1` (single isomer, unassigned) [Example 102B] as the molecule, how does the IC50 read?
Answer: The IC50 was 0.1 to 1000 nM.

Question: How did the IC50 turn out when `CN1C(=O)C(NC(=O)c2nnc(Cc3ccccc3)[nH]2)[C@@H]2C[C@@H]2c2ccccc21` (stereo in doubt) [Example 46B, 5-benzyl-N-((2S)-4-methyl-3-oxo-1,1a,2,3,4,8b-hexahydrobenzo[b]cyclopropa[d]azepin-2-yl)-4H-1,2,4-triazole-3-carboxamide] was run?
Answer: The IC50 was > 3000 nM.

Question: With `O=C(NC1COc2cccnc2-n2ccnc21)c1nn(Cc2ccccc2)cc1F` (stereo in doubt) [Example 154A, (R)-1-benzyl-N-(6,7-dihydroimidazo[1,2-d]pyrido[3,2-b][1,4]oxazepin-7-yl)-4-fluoro-1H-pyrazole-3-carboxamide] as the molecule, how does the IC50 read?
Answer: Its IC50 is > 3000 nM.

Question: How did the IC50 turn out when `CN1C(=O)[C@@H](NC(=O)c2cc3n(n2)CC[C@@H]3c2ccccc2)COc2ccccc21` [Example 13, (R)—N—((S)-5-methyl-4-oxo-2,3,4,5-tetrahydrobenzo[b][1,4]oxazepin-3-yl)-4-phenyl-5,6-dihydro-4H-pyrrolo[1,2-b]pyrazole-2-carboxamide] was run?
Answer: The IC50 was 0.1 to 1000 nM.

Question: `CN1C(=O)[C@@H](NC(=O)c2cc(CC(F)(F)F)on2)COc2ccccc21` [Example 14, (S)—N-(5-methyl-4-oxo-2,3,4,5-tetrahydrobenzo[b][1,4]oxazepin-3-yl)-5-(2,2,2-trifluoroethyl)isoxazole-3-carboxamide] was tested. Which IC50 did it give?
Answer: Its IC50 is 0.1 to 1000 nM.

Question: With `CN1C(=O)[C@@H](NC(=O)C2CN(Cc3ccccc3)C2)COc2ccccc21` [Example 33, (S)-1-benzyl-N-(5-methyl-4-oxo-2,3,4,5-tetrahydrobenzo[b][1,4]oxazepin-3-yl) azetidine-3-carboxamide] as the molecule, how does the IC50 read?
Answer: The IC50 was > 10000 nM.

Question: For `Cc1nc2c(s1)CC[C@@H](NC(=O)c1nnc(Cc3ccccc3)[nH]1)C(=O)N2C` [Example 38B, (R)-5-benzyl-N-(2,4-dimethyl-5-oxo-5,6,7,8-tetrahydro-4H-thiazolo[4,5-b]azepin-6-yl)-4H-1,2,4-triazole-3-carboxamide], which IC50 is on record?
Answer: The IC50 was > 3000 nM.

Question: For `CN1C(=O)[C@@H](NC(=O)C2CC(Cc3ccccc3)C2)COc2ccccc21` (stereo partly drawn) [Example 43, 3-benzyl-N—((S)-5-methyl-4-oxo-2,3,4,5-tetrahydrobenzo[b][1,4]oxazepin-3-yl)cyclobutane-1-carboxamide], which IC50 is on record?
Answer: The IC50 was 1000 to 10000 nM.

Question: `CN1C(=O)[C@@H](NC(=O)c2ncc(S(=O)(=O)c3ccccc3)s2)COc2ccccc21` [Example 49, (S)—N-(5-methyl-4-oxo-2,3,4,5-tetrahydrobenzo[b][1,4]oxazepin-3-yl)-5-(phenylsulfonyl)thiazole-2-carboxamide] was tested. Which IC50 did it give?
Answer: The IC50 was 1000 to 10000 nM.

Question: `C[C@@H]1Oc2cccnc2N(C)C(=O)[C@H]1NC(=O)c1nn(Cc2ccccc2)cc1F` [Example 93, 1-benzyl-N-((2S,3S)-2,5-dimethyl-4-oxo-2,3,4,5-tetrahydropyrido[3,2-b][1,4]oxazepin-3-yl)-4-fluoro-1H-pyrazole-3-carboxamide] was tested. Which IC50 did it give?
Answer: The IC50 was 0.1 to 1000 nM.

Question: `C[C@@H]1Oc2cccnc2N(C)C(=O)[C@H]1NC(=O)c1nnc(Cc2ccccc2)[nH]1` [Example 95, 5-benzyl-N-((2S,3S)-2,5-dimethyl-4-oxo-2,3,4,5-tetrahydropyrido[3,2-b][1,4]oxazepin-3-yl)-4H-1,2,4-triazole-3-carboxamide] was tested. Which IC50 did it give?
Answer: Its IC50 is > 3000 nM.

Question: How did the IC50 turn out when `O=C(N[C@@H]1CC2(CC2)c2cccnc2NC1=O)c1nnc(Cc2ccccc2)[nH]1` [Example 98A, (R)-5-benzyl-N-(8′-oxo-6′,7′,8′,9′-tetrahydrospiro[cyclopropane-1,5′-pyrido[2,3-b]azepin]-7′-yl)-4H-1,2,4-triazole-3-carboxamide] was run?
Answer: Its IC50 is > 3000 nM.

Question: `O=C(N[C@H]1CC2(CC2)c2cccnc2NC1=O)c1nnc(Cc2ccccc2)[nH]1` [Example 98B, (S)-5-benzyl-N-(8′-oxo-6′,7′,8′,9′-tetrahydrospiro[cyclopropane-1,5′-pyrido[2,3-b]azepin]-7′-yl)-4H-1,2,4-triazole-3-carboxamide] was tested. Which IC50 did it give?
Answer: Its IC50 is 0.1 to 1000 nM.

Question: For `CN1C(=O)[C@H](NC(=O)c2cc(Oc3ccccc3F)ccn2)[C@@H]2C[C@@H]2c2cccnc21` [Example 100B, 4-(2-fluorophenoxy)-N-((1aR,2R,8bS)-4-methyl-3-oxo-1,1a,2,3,4,8b-hexahydrocyclopropa[d]pyrido[2,3-b]azepin-2-yl)picolinamide], which IC50 is on record?
Answer: The IC50 was 0.1 to 1000 nM.

Question: With `CN1C(=O)[C@H](NC(=O)c2nnc(Cc3ccccc3)[nH]2)CCc2c1cnn2C` [Example 101A, (R)-5-benzyl-N-(1,4-dimethyl-5-oxo-1,4,5,6,7,8-hexahydropyrazolo[4,3-b]azepin-6-yl)-4H-1,2,4-triazole-3-carboxamide] as the molecule, how does the IC50 read?
Answer: The IC50 was > 3000 nM.

Question: For `O=C(N[C@@H]1CC2(CC2)c2cc(F)cc(F)c2NC1=O)c1nnc(Cc2ccccc2)[nH]1` [Example 103A, (R)-5-benzyl-N-(7,9-difluoro-2-oxo-1,2,3,4-tetrahydrospiro[benzo[b]azepine-5,1′-cyclopropan]-3-yl)-4H-1,2,4-triazole-3-carboxamide], which IC50 is on record?
Answer: The IC50 was > 3000 nM.

Question: How did the IC50 turn out when `Cn1cc2c(n1)CC[C@@H](NC(=O)c1nnc(Cc3ccccc3)[nH]1)C(=O)N2` [Example 104A, (R)-5-benzyl-N-(2-methyl-5-oxo-2,4,5,6,7,8-hexahydropyrazolo[4,3-b]azepin-6-yl)-4H-1,2,4-triazole-3-carboxamide] was run?
Answer: The IC50 was > 3000 nM.

Question: For `Cn1cc2c(n1)CC[C@H](NC(=O)c1nnc(Cc3ccccc3)[nH]1)C(=O)N2` [Example 104B, (S)-5-benzyl-N-(2-methyl-5-oxo-2,4,5,6,7,8-hexahydropyrazolo[4,3-b]azepin-6-yl)-4H-1,2,4-triazole-3-carboxamide], which IC50 is on record?
Answer: The IC50 was 0.1 to 1000 nM.

Question: How did the IC50 turn out when `CN1C(=O)[C@H](NC(=O)c2nnc(Cc3ccccc3)[nH]2)CCc2nn(C)cc21` [Example 105B, (R)-5-benzyl-N-(2,4-dimethyl-5-oxo-2,4,5,6,7,8-hexahydropyrazolo[4,3-b]azepin-6-yl)-4H-1,2,4-triazole-3-carboxamide] was run?
Answer: Its IC50 is > 3000 nM.

Question: For `CN1C(=O)[C@@H](NC(=O)c2nnc(C3(c4ccccc4)CC3)[nH]2)COc2cccnc21` [Example 106, (S)—N-(5-methyl-4-oxo-2,3,4,5-tetrahydropyrido[3,2-b][1,4]oxazepin-3-yl)-5-(1-phenylcyclopropyl)-4H-1,2,4-triazole-3-carboxamide], which IC50 is on record?
Answer: The IC50 was 0.1 to 1000 nM.

Question: For `CN1C(=O)[C@@H](NC(=O)c2cnc(Cc3ccccc3)[nH]2)COc2cccnc21` [Example 108, (S)-2-benzyl-N-(5-methyl-4-oxo-2,3,4,5-tetrahydropyrido[3,2-b][1,4]oxazepin-3-yl)-1H-imidazole-5-carboxamide], which IC50 is on record?
Answer: Its IC50 is 0.1 to 1000 nM.

Question: `CN1C(=O)[C@H](NC(=O)c2nn(Cc3ccccc3)cc2F)CCc2nn(C)cc21` [Example 109B, (R)-1-benzyl-N-(2,4-dimethyl-5-oxo-2,4,5,6,7,8-hexahydropyrazolo[4,3-b]azepin-6-yl)-4-fluoro-1H-pyrazole-3-carboxamide] was tested. Which IC50 did it give?
Answer: The IC50 was > 3000 nM.

Question: With `O=C(N[C@H]1C(=O)Nc2ncccc2[C@H]2C[C@H]21)c1nnc(Cc2ccccc2)[nH]1` [Example 110A, 5-benzyl-N-((1aR,2R,8bS)-3-oxo-1,1a,2,3,4,8b-hexahydrocyclopropa[d]pyrido[2,3-b]azepin-2-yl)-4H-1,2,4-triazole-3-carboxamide] as the molecule, how does the IC50 read?
Answer: The IC50 was > 3000 nM.

Question: `CN1C(=O)[C@H](NC(=O)c2nn(Cc3ccccc3)cc2F)CCc2cccnc21` [Example 111A, (R)-1-benzyl-4-fluoro-N-(9-methyl-8-oxo-6,7,8,9-tetrahydro-5H-pyrido[2,3-b]azepin-7-yl)-1H-pyrazole-3-carboxamide] was tested. Which IC50 did it give?
Answer: The IC50 was 1000 to 10000 nM.

Question: How did the IC50 turn out when `CN1C(=O)[C@@H](NC(=O)c2nnc(C3(c4ccccc4)CC3)[nH]2)COc2cnccc21` [Example 113, (S)—N-(1-methyl-2-oxo-1,2,3,4-tetrahydropyrido[3,4-b][1,4]oxazepin-3-yl)-5-(1-phenylcyclopropyl)-4H-1,2,4-triazole-3-carboxamide] was run?
Answer: Its IC50 is 0.1 to 1000 nM.

Question: How did the IC50 turn out when `CN1C(=O)[C@H](NC(=O)c2nn(Cc3ccccc3)cc2F)CCc2c1cnn2C` [Example 114B, (R)-1-benzyl-N-(1,4-dimethyl-5-oxo-1,4,5,6,7,8-hexahydropyrazolo[4,3-b]azepin-6-yl)-4-fluoro-1H-pyrazole-3-carboxamide] was run?
Answer: The IC50 was > 3000 nM.

Question: `Cn1ncc2c1CC[C@@H](NC(=O)c1nnc(Cc3ccccc3)[nH]1)C(=O)N2` [Example 118A, (R)-5-benzyl-N-(1-methyl-5-oxo-1,4,5,6,7,8-hexahydropyrazolo[4,3-b]azepin-6-yl)-4H-1,2,4-triazole-3-carboxamide] was tested. Which IC50 did it give?
Answer: The IC50 was > 3000 nM.

Question: For `Cn1ncc2c1CC[C@H](NC(=O)c1nnc(Cc3ccccc3)[nH]1)C(=O)N2` [Example 118B, (S)-5-benzyl-N-(1-methyl-5-oxo-1,4,5,6,7,8-hexahydropyrazolo[4,3-b]azepin-6-yl)-4H-1,2,4-triazole-3-carboxamide], which IC50 is on record?
Answer: Its IC50 is 1000 to 10000 nM.

Question: Which IC50 does the source give for `CN1C(=O)[C@H](NC(=O)c2nnc(Cc3ccccc3)[nH]2)[C@@H]2C[C@@H]2c2nccnc21` [Example 119A, 5-benzyl-N-((7R,7aR,8aS)-5-methyl-6-oxo-5,6,7,7a,8,8a-hexahydro-cyclopropa[d]pyrazino[2,3-b]azepin-7-yl)-4H-1,2,4-triazole-3-carboxamide] here?
Answer: Its IC50 is > 3000 nM.

Question: Which IC50 does the source give for `CN1C(=O)[C@H](NC(=O)c2nnc(Cc3ccccc3)s2)[C@@H]2C[C@@H]2c2cccnc21` [Example 120B, 5-benzyl-N-((1aR,2R,8bS)-4-methyl-3-oxo-1,1a,2,3,4,8b-hexahydrocyclopropa-[d]pyrido[2,3-b]azepin-2-yl)-1,3,4-thiadiazole-2-carboxamide] here?
Answer: Its IC50 is > 3000 nM.

Question: For `CN1C(=O)[C@@H](NC(=O)c2cc(Oc3ccc(F)cc3F)ccn2)CCc2cccnc21` [Example 121B, (S)-4-(2,4-difluorophenoxy)-N-(9-methyl-8-oxo-6,7,8,9-tetrahydro-5H-pyrido[2,3-b]azepin-7-yl)picolinamide], which IC50 is on record?
Answer: Its IC50 is 0.1 to 1000 nM.
